In PMC8911025, “Design, Synthesis, and Biological Evaluation of New Azulene-Containing Chalcones” (Materials, 2022):
Values after ≈ are worked out from the molar mass of the structure shown.

Tests used:
Format in all cases: cell-based
HEp-2 cells [1] = test: Cell viability assay (CellTiter Glo); conditions: 25-200 μg/mL
Description: (§1) To assess the toxicity of the azulene-containing chalcones, the adherent cell line HEp-2 (American Cell Type Collection [ATCC] CCL-23^TM) was used.
(§2) In order to estimate the cytotoxicity of the compounds, HEp-2 cells (American Cell Type Collection (ATCC) CCL-23) were exposed to the azulene-containing chalcones at concentrations of 200, 100, 50, and 25 μg/mL and evaluated using CellTiter Glo kit (Promega, Madison, WI, USA) assay. The results presented in Figure 3 are expressed as viability percentages versus control.

[2] = Cell viability assay (CellTiter Glo); conditions: human; HEp-2 cells, 48 h, CellTiter Glo; read-out: IC50 (50% cytotoxic concentration)
Description: as §1, §2

Escherichia coli = test: Antibiofilm activity (crystal violet, A490); conditions: biofilm, read-out: MBEC
Description: (§3) The effect of the chalcones on the biofilm formation was evaluated after the determination of the MICs. Briefly, the plates were emptied, washed to remove the nonadherent cells, fixed with methanol, and stained with crystal violet. The antibiofilm activity was determined after adding 33% acetic acid solution by measuring the absorbance at 490 nm, and the results are listed in Table 6.
(§4) The azulene-chalcone derivatives were tested for their ability to affect biofilm formation since 80% of the world’s microbial biomass is found in the biofilm state. The most efficient compound was again chalcone 6 with MBEC of 0.156–0.625 mg/mL (Table 6).

Candida parapsilosis = test: Antibiofilm activity (crystal violet, A490); conditions: Lodderomyces parapsilosis, biofilm, read-out: MBEC
Description: as §3, §4

Staphylococcus aureus = test: Antibiofilm activity (crystal violet, A490); conditions: biofilm, read-out: MBEC
Description: as §3, §4

Pseudomonas aeruginosa = test: Antibiofilm activity (crystal violet, A490); conditions: biofilm, read-out: MBEC
Description: as §3, §4

[3] = tested on: Pseudomonas aeruginosa ATCC 27853; test: MIC, binary serial dilution in 96-well plates; conditions: ATCC27853; Pseudomonas aeruginosa ATCC 27853, 24 h at 37 °C
Description: (§5) The antimicrobial activity of all compounds was assessed on Gram-positive bacteria (Staphylococcus aureus ATCC 25923), Gram-negative bacteria (Escherichia coli ATCC 25922, Pseudomonas aeruginosa ATCC 27853), and fungi (Candida parapsilosis ATCC 22019) using quantitative binary serial dilution method in 96-well plates. The negative control was represented by wells with culture medium, while positive control was the microbial strain in broth. Briefly, binary serial dilutions of the compounds performed in 100 μL of broth were seeded with microbial inoculum of 10^6 colony forming units (CFU)/mL and incubated for 24 h at 37 °C. […] Due to the fact that the obtained compounds were colored, after the incubation of the 96-well plates, from each well, 10 µL were seeded on agar plates (Plate Count Agar) to determine the inhibitory concentration. The same value of the inhibitory concentration was obtained in repeated experiments.
(§6) The antibacterial effect of the azulene moiety introduced in the chalcone structure was investigated against Gram-positive (Staphylococcus aureus ATCC 25923) and Gram-negative (Escherichia coli ATCC 25922, Pseudomonas aeruginosa ATCC 27853) bacteria, while the antifungal effect was tested against Candida parapsilosis ATCC 22019. To our knowledge, the antibacterial activity of azulene-containing chalcone compounds has not been reported previously; moreover, this is the first investigation of the biological properties of azulene-containing chalcones in general. The results expressed in terms of minimum inhibitory concentration (MIC) were determined by in vitro screening of the antimicrobial properties using the broth microdilution method and are summarized in Table 5.

[4] = tested on: Escherichia coli ATCC 25922; test: MIC, binary serial dilution in 96-well plates; conditions: ATCC25922; Escherichia coli ATCC 25922, 24 h at 37 °C
Description: as §5, §6

[5] = tested on: Staphylococcus aureus ATCC 25923; test: MIC, binary serial dilution in 96-well plates; conditions: for MIC: ATCC25923, Staphylococcus aureus ATCC 25923, 24 h at 37 °C; for Aexp: Aexp = 0.1 + log (k/MIC), k = 1.250, compounds synthesized herein
Description: as §5, §6

[6] = tested on: Candida parapsilosis ATCC 22019; test: MIC (antifungal), binary serial dilution in 96-well plates; conditions: Lodderomyces parapsilosis, ATCC22019; Candida parapsilosis ATCC 22019, 24 h at 37 °C
Description: as §5, §6
We further tested the azulene-containing chalcone compounds for antifungal activity against Candida parapsilosis ATCC 22019.

caspase 9 = test: Gene expression quantification (qPCR); conditions: HEp-2, 100 µg/mL, 24 h
Description: (§7) The mechanism of azulene-containing chalcone toxicity was assessed by gene expression evaluation. HEp-2 cells were seeded in 6-well plates at a concentration of 3 × 10^5 cells/wells in DMEM:F12 supplemented with 10% FBS. The cells were treated with azulene-containing chalcone at a concentration of 100 µg/mL. After 24 h, the cells were harvested and centrifuged, and the pellet was subjected to total RNA extraction using Trizol reagent (Sigma, St. Louis, MO, USA). The cDNA was produced using 2 µg total RNA and High Capacity Reverse Transcription Kit (Thermo Fisher Scientific, Chelmsford, MA, USA). Fifty nanograms of cDNA was subjected to PCR reaction using Maxima SYBR Green/ROX qPCR Master Mix (Thermo Fisher Scientific, Chelmsford, MA, USA) and Origene primer pairs: caspase 3 (CAT#: HP207674) caspase 7 (CAT#: HP233752), caspase 8 (CAT#: HP234494), caspase 9 (CAT#: HP205155), caspase 10 (CAT#: HP228052). For NOX-4 and NOS2, the following primers were used: NOX 4 forward 5′-[…]-3 and reverse 5′-[…]-3′ and NOS2 forward 5′-[…]-3′ and reverse 5′-[…]-3′. Amplification was completed using StepOne Real-Time PCR System (Thermo Fisher Scientific, Chelmsford, MA, USA). The relative changes in the levels of mRNA expression were quantified by using the 2^−ΔΔCT method.
(§8) Production of procaspase 8 mRNA was inhibited by 7, 9, and 10, with an important role in extrinsic apoptosis induction remaining for caspase 10. Cellular stress induces intrinsic apoptosis by caspase 9 activation that stimulates the caspase cascade, culminating in activation of executioner caspases 3 and 7 [42]. The mRNA expression of caspase 9 was activated following the treatment with 100 µg/mL of compounds 1–8 but inhibited by 9 and 10.

caspase 8 = test: Gene expression quantification (qPCR); conditions: HEp-2, 100 µg/mL, 24 h
Description: as §7, §8

HEp-2 cells [7] = test: Cell cycle analysis (propidium iodide, flow cytometry); conditions: HEp-2, starting from 50 µg/mL
Description: For cell cycle analysis, a suspension of 7.5 × 10^4 HEp-2 cells was seeded for 24 h in a 1 cm^2 well in DMEM:F12 containing 10% fetal bovine serum. After recovery, the cells were treated with 50 µg/mL or 100 µg/mL azulene-containing chalcone, and 24 h later, the cells were harvested, fixed in cold ethanol overnight, and stained with RNase A/propidium iodide at a concentration of 1 mg/mL to 100 µg/mL. The events were recorded using the Beckman Coulter flow cytometer and analyzed using FlowJo 7.2.5 software.
The cytotoxicity data were also confirmed by cell cycle analysis. Among the tested compounds, chalcone 10 induced an increase in the G2/M phase starting from a concentration of 50 µg/mL (Supplementary Material Figure S2), the effect increasing slightly with the concentration of the tested compound. The increase in the G2/M phase was also observed in the case of compound 9, but at a higher concentration (100 µg/mL), but this effect was lower (Figure 4).

caspase 7 = test: Gene expression quantification (qPCR); conditions: HEp-2, 100 µg/mL, 24 h
Description: as §7
(§9) We observed that the expression of both executioner caspases, caspase 3 (Casp 3), and caspase 7 (Casp 7), was activated by azulene (Figure 5, right). The production of procaspase 3 and 7 mRNA in the case of compounds 9 and 10 was quite reduced, probably correlated with the decreased number of cells.

caspase 3 = test: Gene expression quantification (qPCR); conditions: HEp-2, 100 µg/mL, 24 h
Description: as §7, §9

biofilm formation = test: Antibiofilm activity, summary over the tested strains; conditions: range over the tested strains (Table 6)
Description: as §3, §4

SMILES	cytotoxicity (HEp-2 cells [1])	IC50 at 48 h [2] [µg/mL]	minimal effective concentration (Escherichia coli) [µg/mL]	minimal effective concentration (Candida parapsilosis) [µg/mL]	minimal effective concentration (Staphylococcus aureus) [µg/mL]	minimal effective concentration (Pseudomonas aeruginosa) [µg/mL]	MIC [3] [µg/mL]	MIC [4] [µg/mL]	MIC [5] [µg/mL]	Aexp [5]	MIC [6] [µg/mL]	mRNA expression of caspase 9 (caspase 9)	procaspase 8 mRNA production (caspase 8)	effect on G2/M phase (HEp-2 cells [7])	procaspase 7 mRNA expression (caspase 7)	procaspase 3 mRNA expression (caspase 3)	MBEC (biofilm formation) [mg/mL]
Cc1cc(C(=O)/C=C/c2ccc3cccccc2-3)c2cccccc1-2 [Compound 10, (E)-3-(Azulen-1-yl)-1-(3-methylazulen-1-yl)prop-2-en-1-one]	most toxic	4.95 (≈ 15.4 µM)	625	312	1250	625	625 (≈ 1940 µM)	625 (≈ 1940 µM)	1250 (≈ 3880 µM)	0.100	312 (≈ 968 µM)	inhibited	inhibited	increase	quite reduced	quite reduced	–
O=C(/C=C/c1cc(Br)c2cccccc1-2)c1ccc2cccccc1-2 [Compound 8, (E)-1-(Azulen-1-yl)-3-(3-bromoazulen-1-yl)prop-2-en-1-one]	–	93.5 (≈ 242 µM)	625	312	1250	1250	625 (≈ 1610 µM)	625 (≈ 1610 µM)	1250 (≈ 3230 µM)	0.100	312 (≈ 806 µM)	–	–	–	–	–	–
O=C(/C=C/c1ccc2cccccc1-2)c1ccc2cccccc1-2 [Compound 6, (E)-1,3-Di(azulen-1-yl)prop-2-en-1-one]	low toxicity	78.6 (≈ 255 µM)	625	156	625	625	625 (≈ 2030 µM)	625 (≈ 2030 µM)	625 (≈ 2030 µM)	0.401	156 (≈ 506 µM)	–	–	–	–	–	0.156 to 0.625
O=C(/C=C/c1ccc2cccccc1-2)c1ccc2ccccc2c1 [Compound 5, (E)-3-(Azulen-1-yl)-1-(naphthalen-2-yl)prop-2-en-1-one]	–	102 (≈ 332 µM)	625	625	2500	1250	625 (≈ 2030 µM)	625 (≈ 2030 µM)	1250 (≈ 4050 µM)	0.100	312 (≈ 1010 µM)	–	–	–	–	–	–
Nc1ccc(C(=O)/C=C/c2ccc3cccccc2-3)cc1 [Compound 3, (E)-1-(4-Aminophenyl)-3-(azulen-1-yl)prop-2-en-1-one]	–	114 (≈ 415 µM)	625	625	2500	1250	625 (≈ 2290 µM)	625 (≈ 2290 µM)	1250 (≈ 4570 µM)	0.100	312 (≈ 1140 µM)	–	–	–	–	–	–
O=C(/C=C/c1ccc2cccccc1-2)c1ccc(O)cc1 [Compound 2, (E)-3-(Azulen-1-yl)-1-(4-hydroxyphenyl)prop-2-en-1-one]	–	97.5 (≈ 355 µM)	625	312	1250	625	625 (≈ 2280 µM)	625 (≈ 2280 µM)	1250 (≈ 4560 µM)	0.100	312 (≈ 1140 µM)	–	–	–	–	–	–
O=C(/C=C/c1ccc2cccccc1-2)c1cccc2ccccc12 [Compound 4, (E)-3-(Azulen-1-yl)-1-(naphthalen-1-yl)prop-2-en-1-one]	–	61.8 (≈ 200 µM)	625	625	1250	625	625 (≈ 2030 µM)	625 (≈ 2030 µM)	1250 (≈ 4050 µM)	0.100	312 (≈ 1010 µM)	–	–	–	–	–	–
